Results reported in ChEMBL document CHEMBL5233278, “Recent Advances in the Medicinal Chemistry of Farnesoid X Receptor” (J Med Chem, 2021).

Key:
[1] = biological target: T1, Peroxisome proliferator-activated receptor delta (Homo sapiens, UniProt Q03181); assay: Agonist activity at human PPARdelta expressed in HEK293T cells incubated for 12 to 14 hrs by Dual-Glo luciferase assay; type: cell-based
T1 sequence (Q03181 whole entry): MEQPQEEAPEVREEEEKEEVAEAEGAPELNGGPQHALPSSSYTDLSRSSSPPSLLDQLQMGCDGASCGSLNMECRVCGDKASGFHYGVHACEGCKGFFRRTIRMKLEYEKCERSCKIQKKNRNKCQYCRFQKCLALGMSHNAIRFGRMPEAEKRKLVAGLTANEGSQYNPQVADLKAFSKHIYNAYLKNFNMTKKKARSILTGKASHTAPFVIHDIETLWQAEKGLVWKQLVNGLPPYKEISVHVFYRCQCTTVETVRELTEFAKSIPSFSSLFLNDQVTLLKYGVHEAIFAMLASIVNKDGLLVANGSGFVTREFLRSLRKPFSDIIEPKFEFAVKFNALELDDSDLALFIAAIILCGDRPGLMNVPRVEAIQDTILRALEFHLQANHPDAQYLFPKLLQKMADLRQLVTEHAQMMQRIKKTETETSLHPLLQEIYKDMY

Bile acid receptor = biological target: T2, Bile acid receptor (Homo sapiens, UniProt Q96RI1); assay: Agonist activity at FXR in human HeLa cells incubated for 24 hrs by Dual-Glo luciferase assay; type: cell-based
T2 sequence (Q96RI1 whole entry): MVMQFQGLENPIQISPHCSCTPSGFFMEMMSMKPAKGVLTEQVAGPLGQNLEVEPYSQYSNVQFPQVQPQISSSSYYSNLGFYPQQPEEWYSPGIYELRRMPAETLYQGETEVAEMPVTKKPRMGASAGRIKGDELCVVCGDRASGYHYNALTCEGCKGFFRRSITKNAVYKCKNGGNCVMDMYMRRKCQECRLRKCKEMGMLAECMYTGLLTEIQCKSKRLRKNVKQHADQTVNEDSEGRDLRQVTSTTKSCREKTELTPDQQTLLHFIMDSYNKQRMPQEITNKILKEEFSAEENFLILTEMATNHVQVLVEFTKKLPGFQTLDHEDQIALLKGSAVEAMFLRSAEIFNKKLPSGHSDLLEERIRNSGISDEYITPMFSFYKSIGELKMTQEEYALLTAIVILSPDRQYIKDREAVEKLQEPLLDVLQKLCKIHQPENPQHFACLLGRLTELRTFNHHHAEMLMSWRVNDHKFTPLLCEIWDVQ

SMILES: CC(C)c1onc(-c2c(Cl)cccc2Cl)c1COc1ccc(CNc2ccc(CC(=O)O)cc2)c(Cl)c1
- EC50 [1]: 1500 nM
- EC50 (Bile acid receptor): 940 nM
